{
  "source": "patent US10532991B2",
  "about": "(TAIPEI MEDICAL UNIVERSITY, priority 2018, dated 2020)",
  "key": {"[1]": {"test": "Human liver microsome stability", "format": "in vitro ADME", "conditions": "human liver microsomes, 1 μM test compound, 37° C.; CLint = k/P"}, "[2]": {"conditions": "in vivo; cited from earlier work"}},
  "data": [
    {"smiles": "C[C@]12CC[C@H]3[C@@H](CCC4=CC(=O)CC[C@@]43C)[C@@H]1CC[C@@H]2O", "note": "[Testosterone, testosterone, reference compound]", "values": [
      {"measurement": "CLint (intrinsic clearance)", "setting": "[1]", "result": 0.0727, "unit": "mL/min/mg Protein"}
    ]},
    {"smiles": "[2H]C([2H])([2H])Oc1cc2c(cc1OC([2H])([2H])[2H])C1CC(=O)C(CC(C)C)CN1CC2", "note": "(centres unmarked) [deutetrabenazine]", "values": [
      {"measurement": "area under the curve (AUC)", "setting": "[2]", "result": 542, "unit": "ng·h/mg"},
      {"measurement": "t1/2", "setting": "[2]", "result": 8.6, "unit": "h"}
    ]},
    {"smiles": "COc1cc2c(cc1OC)C1CC(=O)C(CC(C)C)CN1CC2", "note": "(centres unmarked) [tetrabenazine]", "values": [
      {"measurement": "area under the curve (AUC)", "setting": "[2]", "result": 261, "unit": "ng·h/mg"},
      {"measurement": "t1/2", "setting": "[2]", "result": 4.8, "unit": "h"}
    ]}
  ]
}
